Test results as given in patent publication US20250320194A1, “PHARMACEUTICALLY ACCEPTABLE SALT AND CRYSTAL FORM OF FUSED PYRIDINE RING DERIVATIVE AND PREPARATION METHOD THEREFOR” (Jiangsu Hengrui Pharmaceuticals Co., Ltd., priority 2021, published 2025).

How the values were obtained:
[1] = Hygroscopicity of salt crystal forms (DVS, 25° C.); type: physicochemical
Procedure: The test adopts SMS DVS Advantage, at 25° C., with a humidity range of 0 to 95% and a step of 10%. The judgment standard is that the dM/dT of each gradient mass change is less than 0.002%, TMAX is 360 minutes, and the cycle is two times. • 5. Cation chromatography • Instrument model: DIONEX AQUION ion chromatograph, USA • Detection method: conductivity; separation column: IonPac CS16-CG16 • Eluent: MSA 20Mm • Flow rate: 1.0 ml/min • 6. Anion chromatography • Instrument model: DIONEX INTEGRION HPIC ion chromatograph, USA • Detection method: conductivity; separation column: DionexIonPac™-AS11-HC • Eluent: EGC-500-KOH • Flow rate: 1.5 ml/min
Using Surface Measurement Systems advantage, at 25° C., the humidity starts from 50%, the humidity range is 0% to 95%, the step is 10%. The judgment standard was that the dM/dT of each gradient mass change is less than 0.002%, TMAX360 min, and the cycle was two times. The hygroscopicity of different salt crystal forms of the compound of formula I was investigated respectively.

[2] = Stability under influencing factors (high temperature, high humidity, open, 30 days)
[3] = Long-term/accelerated stability; settings: for Purity %: 4° C.

CC(C)(C#Cc1nc(C(Cc2cc(F)cc(F)c2)NC(=O)Cn2nc(C(F)(F)F)c3c2C(F)(F)C2CC32)c(-c2ccc(Cl)c3c([N-]S(C)(=O)=O)nn(CC(F)(F)F)c23)c2c1CCC2)S(C)(=O)=O.[Na+] (stereo not drawn) [Crystal form III of the sodium salt]
Hygroscopicity 0.0% RH-95.0% RH ([1]; DVS, 25° C., 0.0% RH-95.0% RH): 2.04% | Hygroscopicity 20.0% RH-80.0% RH ([1]; DVS, 25° C., 20.0% RH-80.0% RH): 0.73% | Crystal form ([1]; after DVS): Unchanged | physical and chemical stability (conclusion) ([2]; 40° C., 60° C., 75% RH and 92.5% RH): good physical and chemical stability | Color, properties ([2]; 40° C., 5 days): White solid | Crystal form ([2]; 40° C., 5 days): Unchanged | Purity % ([2]; 40° C., 5 days): 97.98% | Color, properties ([2]; 40° C., 10 days): White solid | Crystal form ([2]; 40° C., 10 days): Unchanged | Purity % ([2]; 40° C., 10 days): 98.10% | Color, properties ([2]; 40° C., 30 days): White solid | Crystal form ([2]; 40° C., 30 days): Unchanged | Purity % ([2]; 40° C., 30 days): 98.06% | Color, properties ([2]; 60° C., 5 days): White solid | Crystal form ([2]; 60° C., 5 days): Unchanged | Purity % ([2]; 60° C., 5 days): 98.05% | Color, properties ([2]; 60° C., 10 days): White solid | Crystal form ([2]; 60° C., 10 days): Unchanged | Purity % ([2]; 60° C., 10 days): 98.08% | Color, properties ([2]; 60° C., 30 days): White solid | Crystal form ([2]; 60° C., 30 days): Unchanged | Purity % ([2]; 60° C., 30 days): 97.99% | Color, properties ([2]; 75% RH, 5 days): White solid | Crystal form ([2]; 75% RH, 5 days): Unchanged | Purity % ([2]; 75% RH, 5 days): 98.08% | Color, properties ([2]; 75% RH, 10 days): White solid | Crystal form ([2]; 75% RH, 10 days): Unchanged | Purity % ([2]; 75% RH, 10 days): 98.10% | Color, properties ([2]; 75% RH, 30 days): White solid | Crystal form ([2]; 75% RH, 30 days): Unchanged | Purity % ([2]; 75% RH, 30 days): 98.00% | Color, properties ([2]; 92.5% RH, 5 days): White solid | Crystal form ([2]; 92.5% RH, 5 days): Unchanged | Purity % ([2]; 92.5% RH, 5 days): 97.94% | Color, properties ([2]; 92.5% RH, 10 days): White solid | Crystal form ([2]; 92.5% RH, 10 days): Unchanged | Purity % ([2]; 92.5% RH, 10 days): 97.94% | Color, properties ([2]; 92.5% RH, 30 days): White solid | Crystal form ([2]; 92.5% RH, 30 days): Unchanged | Purity % ([2]; 92.5% RH, 30 days): 97.89% | Color, properties ([2]; Start, 0 days): White solid | Purity % ([2]; Start, 0 days): 98.23% | Purity % ([3]; 1 month): 98.25% | Purity % ([3]; 2 months): 98.26% | Purity % ([3]; 3 months): 98.24% | Purity % ([3]; 6 months): 98.28% | Purity % ([3]; Start): 98.32% | physical and chemical stability (conclusion) ([3]; long-term accelerated stability conditions for 6 months): good physical and chemical stability
